# Reference: US10265421B2, “Hyperpolarized esters as metabolic markers in MR” (BRACCO IMAGING S.P.A., priority 2013, dated 2019)
# Experiments:
# [1] = test system: rat cancer cells; assay: Concentration dependent metabolism of hyperpolarized substrates in rat cancer cells; format: cell-based; conditions: approx. 1, 3.5 and 10 mM, 10 million cells, maximum peak intensity
# Text: In all experiments 10 million cells were used. The experimental set-up from Example 2.b was applied. Data are shown as maximum peak intensity of either substrate or metabolite signals.
# [2] = DNP conversion of hyperpolarized substrates in human blood; format: in vitro ADME; conditions: 2.5 ml human blood, approx. 5 mM substrate
# Description: (§1) In all experiments 2.5 ml human blood or 2.5 ml rat blood was used. […] Data are presented as area under the curve of the metabolites divided by the substrate signal in the first spectrum and multiplied by 100 to obtain the unit, DNP conversion in percentage.
# [3] = DNP conversion of hyperpolarized substrates in rat blood; format: in vitro ADME; conditions: 2.5 ml rat blood, approx. 5 mM substrate
# Description: as §1
# [4] = test system: CE1 from pig's liver; assay: Carboxyl esterase activity on different ethyl esters (1H NMR); format: biochemical; conditions: 26 μmol substrate, pH 7.5, 37° C., 60 min
# Description: The experiments were performed with commercially available CE1 from pig's liver.
# The ethyl esters used as substrates are: ethyl acetoacetate (EAA); ethyl acetate (EA); ethyl butyrate (EB); ethyl pyroglutamate (EPG); ethyl pyruvate (EP); diethyl succinate (DES).
# Individual samples of the substrates were all made in the following way: 26 μmol was weighted in an eppendorf tube. 550 μl deuterated phosphate buffer (200 mM, pH 7.5) was added and the substrate was brought into solution by whirl mixing. The solution was transferred to a 5 mm NMR tube and inserted in the spectrometer at 37° C. A reference experiment was acquired on the substrate solution without enzyme after which 10 μl of an esterase stock solution (37 U/ml in deuterated phosphate buffer) was added in the top of the tube. The sample was mixed and returned to the spectrometer. A series of thermal 1D 1H NMR experiments were recorded every 5 min for 60 min. The data were analyzed and presented as peak intensity of the product scaled to the peak intensity of the substrate signal in the first spectrum.
# [5] = test system: rat liver cancer cells (Morris7777); assay: In cell DNP conversion of hyperpolarized substrate in rat liver cancer cells; format: cell-based; conditions: whole Morris7777 cells, 10 million cells, 3.5 mM substrate, 37° C.
# Description: (§2) To the solution was added a DMSO solution of gadolinium complex [[α1,α4,α7-tris[(phenylmethoxy)methyl]-1,4,7,10-tetraazacyclododecane-1,4,7,10-tetraacetate(4-)]gadolinate(1-)]hydrogen (1.1 mg of a 100 μmol/g solution). The concentration of radical and gadolinium were 17 mM and 2.3 mM respectively.
# (§3) B) 30 μmol of solution A) was hyperpolarized. The sample was dissolved in 5 ml phosphate buffer (40 mM, pH 7.3). The pH after dissolution was 7.3.
# (§4) A) 10 million cells (either rat liver cancer cells (Morris7777) or human liver cancer cells (HEP-G2)) were harvested and redissolved in […] phosphate buffer (PBS). The cells in suspension were transferred to a 10 mm NMR tube and placed with a connecting tubing in a 14.1 T magnet at 37° C.
# (§5) A series of 30 degree pulses every 2 s (56 scans in total) was acquired. The acquisition was started just before injection of the hyperpolarized substrate.
# The two substrates were co-polarized without mixing the substrates. Following dissolution in 5 ml phosphate buffer (40 mM pH 7.3) with addition of 2.5 μl NaOH to neutralize the pyruvic acid (which is thus converted into the pyruvate anion form), the substrate mixture was injected into 10 million cells in suspension. The experiment was performed as described in Example 2.b. […]
# [6] = test system: human liver cancer cells (HepG2); assay: In cell DNP conversion of hyperpolarized substrate in human liver cancer cells; format: cell-based; conditions: whole HepG2 cells, 10 million cells, 3.5 mM substrate, 37° C.
# Description: as §2, §3, §4, §5
# [7] = test system: carboxylesterase; assay: In vivo localized dynamic 13C MRS in healthy liver and liver cancer; set-up: species or system rat; conditions: 0.4 mmol/kg i.v.
# Description: One million McA-RH7777 cells have been suspended in 0.2 mL of Dulbecco's Modified Eagle's Medium (DMEM) and injected under the hepatic capsula of the liver left lobe of anesthetized Buffalo rats.
# The sample was dissolved in 5 ml TRIS buffer (40 mM, pH 7) added with EDTA 100 mg/l. The pH after dissolution was 7.5.
# A total of 8 animals were used in the study. 4 rats were implanted with the tumour (i.e. tumour group) whereas the remaining animals were used as controls (i.e. liver group) in order to have a comparison between healthy and diseased tissue on the same strain. The metabolic fate of injected ethyl [1,3-^13C2]-acetoacetate was followed by means of a localised spectroscopy sequence which allows a selective acquisition of either tumour or healthy liver tissue. Acquisition started just before injecting the hyperpolarized substrate and comprised a series of 64 time-domain points sampled at a rate of 3 s. The applied flip angle was equal to 10 degrees.
# [8] = non-tumor and tumor bearing mice; cited from earlier work
# [9] = anesthetized rat; cited from earlier work
# [10] = test system: carboxylesterase; assay: General carboxylesterase activity in sonicated cancer cells (spectrophotometric, NA substrate); format: biochemical; conditions: liver cancer cells (rat and human) and prostate cancer cells; 1 mM substrate, 10 min, 30 degrees
# Description: General carboxylesterase activity was determined spectrophotometrically using the carboxylesterase substrate 1-naphthyl acetate (NA) as described previously (Rudakova, 2011). Briefly, sonicated cells were incubated with 1 mM substrate in 150 mM phosphate buffer (pH 7.5), and generation of 1-naphtol was monitored at 322 nm and quantified from its extinction coefficient (2200 M−1 cm−1). The reaction is allowed to take place for 10 min at 30 degrees. […] Cells of different origin (rat hepatoma, Morris; human hepatoma, HepG2; human prostate carcinoma, PC-3; human breast carcinoma, MCF-7) were harvested and redissolved in phosphate buffer to a concentration of 10 million cells/ml. The sample composition was as follows: 923 μl phosphate buffer (150 mM pH 7.3)+77 μl NA solution (13 mM in acetone)+100 μl cells in suspension. The absorbance of the samples were compared to reference samples where acetone was added instead of substrate. The esterase activity was calculated using the extinction coefficient ε322=2200 M^−1 cm^−1.
# [11] = test system: carboxylesterase; assay: In vivo 13C CSI in rat liver with implanted Morris7777 tumor
# Description: 4 anesthetized Buffalo rats were injected under the hepatic capsula of the liver left lobe with one million McA-RH7777 cells suspended in 0.2 mL of Dulbecco's Modified Eagle's Medium (DMEM) medium.
# The sample was dissolved in 5 ml TRIS buffer (40 mM, pH 7) added with EDTA 100 mg/I. The pH after dissolution was 7.5.
# Chemical Shift Imaging (CSI) maps were acquired on a approx. 8 mm coronal slice placed in the abdominal region of the rat. The in plane field of view was set to 40×55 mm^2 and the corresponding matrix size was 14×14.
smiles,measurement,setting,value
"CC(=O)C(=O)O [[1-^13C]-pyruvate, reference compound]",change of metabolite signal with increasing substrate concentration,[1],unchanged going from 3 mM to 10 mM
same,build-up of metabolite signal in human blood,[2],build-up of lactate is significant
same,build-up of metabolite signal in rat blood,[3],build-up of lactate is significant
CCOC(=O)CCC(=O)OCC [diethyl succinate],conversion (turnover) by CE1,[4],overall fastest converted substrate
"CCO[13C](=O)C[13C](C)=O [ethyl [1,3-^13C2]-acetoacetate]",build-up of hyperpolarized acetoacetate anion from hydrolysis,[5],possible to follow the build-up of the product
same,build-up of hyperpolarized acetoacetate anion from hydrolysis,[6],possible to follow the build-up of the product
same,"ramping up rate of metabolite signal, healthy liver with respect to cancer tissue",[7]; localized spectroscopy,≥ 2
same,uptake and conversion in liver cells in vivo,[7]; healthy and diseased liver,taken up by both healthy and diseased liver cells and converted into its hyperpolarized metabolite
same,conversion in vivo,[8],rapidly converted into acetoacetate
CCO[13C](=O)C(C)=O [ethyl [1-^13C]-pyruvate],uptake into brain,[9],rapid and preferential
CCOC(C)=O [ethyl acetate],factor by which diethyl succinate is converted faster than this substrate,[4],ten times faster converted
CCOC(=O)CC(C)=O [ethyl acetoacetate],carboxyl esterase activity (capacity of cells to hydrolyse substrate),[10],up to 95 mU/million cells
same,change of metabolite signal with increasing substrate concentration,[1],increases almost quantitatively with increasing substrate concentration
same,build-up of metabolite signal in human blood,[2],no build-up of metabolite signal could be measured
same,build-up of metabolite signal in rat blood,[3],conversion of ethyl acetoacetate is seen
same,factor by which diethyl succinate is converted faster than this substrate,[4],~2
same,distribution of substrate signal (CSI map),"[11]; Morris hepatocellular carcinoma bearing rat, 0.4 mmol/kg i.v., 20 s acquisition",mainly observed in the tumour mass
same,conversion in healthy liver during acquisition,"[11]; healthy liver, 20 s acquisition time",almost completely converted
CCCC(=O)OCC [ethyl butyrate],factor by which diethyl succinate is converted faster than this substrate,[4],~2
CCOC(=O)[C@@H]1CCC(=O)N1 [ethyl pyroglutamate],conversion (turnover) by CE1,[4],barely detectable
"CCOC(=O)C(C)=O [ethyl pyruvate, reference compound]",conversion (turnover) by CE1,[4],no conversion at all could be measured
CCOC(=O)CCC(=O)O [mono-ester],conversion (turnover) by CE1,[4],not a substrate for CE1
